Columns and labels:
Format in all cases: in vivo
Kochia (Kochia scoparia) [1] = test: Test A preemergence; conditions: Bassia scoparia, pre-emergence, 240 h
Outline: (§1)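 Seeded soil received test chemicals as a preemergence directed spray, and seedlings at one to two leaves, 2–10 cm tall, received them postemergence, in a non-phytotoxic, surfactant-containing solvent mixture. Pots were held in a greenhouse for approximately 10 d, then rated for injury from 0, no effect, to 100, complete control.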

[2] = system: barnyardgrass (Echinochloa crus-galli); test: Test A preemergence; conditions: Echinochloa crus-galli, pre-emergence, 240 h
Outline: as §1

[3] = system: giant foxtail (Setaria faberii); test: Test A preemergence; conditions: Setaria faberi, pre-emergence, 240 h
Outline: as §1

[4] = system: pigweed (Amaranthus retroflexus); test: Test A preemergence; conditions: Amaranthus retroflexus, pre-emergence, 240 h
[5] = system: ragweed (common ragweed, Ambrosia elatior); test: Test A preemergence; conditions: Ambrosia artemisiifolia, pre-emergence, 240 h
Outline: as §1

[6] = system: ryegrass, Italian (Italian ryegrass, Lolium multiflorum); test: Test A preemergence; conditions: Lolium multiflorum, pre-emergence, 240 h
Outline: as §1

[7] = system: Galium (catchweed bedstraw, Galium aparine); test: Test A postemergence; conditions: Galium, post-emergence, 240 h, read-out: Plant response rating, Galium
Outline: as §1

Kochia (Kochia scoparia) [8] = test: Test A postemergence; conditions: Bassia scoparia, post-emergence, 240 h, read-out: Plant response rating, Kochia
Outline: as §1

[9] = system: barnyardgrass (Echinochloa crus-galli); test: Test A postemergence; conditions: Echinochloa crus-galli, post-emergence, 240 h, read-out: Plant response rating, Barnyardgrass
Outline: as §1

[10] = system: blackgrass (Alopecurus myosuroides); test: Test A postemergence; conditions: Alopecurus myosuroides, post-emergence, 240 h, read-out: Plant response rating, Blackgrass
Outline: as §1

corn (Zea mays) = test: Test A postemergence; conditions: Zea mays, post-emergence, 240 h
Outline: as §1

[11] = system: giant foxtail (Setaria faberii); test: Test A postemergence; conditions: Setaria faberi, post-emergence, 240 h, read-out: Plant response rating, Foxtail, Giant
Outline: as §1

[12] = system: pigweed (Amaranthus retroflexus); test: Test A postemergence; conditions: Amaranthus retroflexus, post-emergence, 240 h, read-out: Plant response rating, Pigweed
Outline: as §1

[13] = system: ragweed (common ragweed, Ambrosia elatior); test: Test A postemergence; conditions: Ambrosia artemisiifolia, post-emergence, 240 h, read-out: Plant response rating, Ragweed
Outline: as §1

[14] = system: ryegrass, Italian (Italian ryegrass, Lolium multiflorum); test: Test A postemergence; conditions: Lolium multiflorum, post-emergence, 240 h, read-out: Plant response rating, Ryegrass, Italian
Outline: as §1

[15] = system: wheat (Triticum aestivum); test: Test A postemergence; conditions: Triticum aestivum, post-emergence, 240 h, read-out: Plant response rating, Wheat
Outline: as §1

[16] = system: barnyardgrass (Echinochloa crus-galli); test: Test B flooded paddy test; conditions: Echinochloa crus-galli, 250 g ai/ha, Flood; 0 to 100 scale where 0 is no effect and 100 is complete control; read-out: Barnyardgrass plant response rating
Outline: (§2)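 2-leaf plants; pots flooded 3 cm over soil; cpd added to paddy water; depth held; greenhouse 13–15 d; visual rating vs controls, 0 = no effect, 100 = complete control.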

[17] = system: ducksalad (Heteranthera limosa); test: Test B flooded paddy test; conditions: Heteranthera limosa, 250 g ai/ha, Flood; 0 to 100 scale where 0 is no effect and 100 is complete control; read-out: Ducksalad plant response rating
Outline: as §2

rice (Oryra sativa) = test: Test B flooded paddy test; conditions: Oryza sativa, 250 g ai/ha, Flood; 0 to 100 scale where 0 is no effect and 100 is complete control; read-out: Rice plant response rating
Outline: as §2

[18] = system: sedge, umbrella (small-flower umbrella sedge, Cyperus difformis); test: Test B flooded paddy test; conditions: Cyperus difformis, 250 g ai/ha, Flood; 0 to 100 scale where 0 is no effect and 100 is complete control; read-out: Sedge, Umbrella plant response rating
Outline: as §2

[19] = 125 g ai/ha, Postemergence, visual injury after approximately 10 d, 0 to 100 scale where 0 is no effect and 100 is complete control
[20] = 500 g ai/ha, postemergence, visual injury, 0 to 100 scale (0 no effect, 100 complete control), approx. 10 d

SMILES: CN1CC[C@H](c2ccc(OC(F)(F)F)cc2)[C@@H](C(=O)Nc2cccc(Cl)c2F)C1=O [Compound 1002]
- pest or weed control at 125 g/ha (Kochia (Kochia scoparia) [1]; 125 g ai/ha, Preemergence, visual injury rating after approximately 10 d, read-out: Kochia plant response rating (0 to 100 scale, 0 is no effect, 100 is complete control)): 0%
- pest or weed control at 500 g/ha (Kochia (Kochia scoparia) [1]; 500 g ai/ha, preemergence, visual injury rating about 10 d after treatment, 0 to 100 scale (0 no effect, 100 complete control), read-out: Kochia plant response rating): 0%
- pest or weed control at 125 g/ha ([2]; 125 g ai/ha, Preemergence, visual injury rating after approximately 10 d, read-out: Barnyardgrass plant response rating (0 to 100 scale, 0 is no effect, 100 is complete control)): 20%
- pest or weed control at 500 g/ha ([2]; 500 g ai/ha, preemergence, visual injury rating about 10 d after treatment, 0 to 100 scale (0 no effect, 100 complete control), read-out: Barnyardgrass plant response rating): 70%
- pest or weed control at 125 g/ha ([3]; 125 g ai/ha, Preemergence, visual injury rating after approximately 10 d, read-out: Foxtail, Giant plant response rating (0 to 100 scale, 0 is no effect, 100 is complete control)): 30%
- pest or weed control at 500 g/ha ([3]; 500 g ai/ha, preemergence, visual injury rating about 10 d after treatment, 0 to 100 scale (0 no effect, 100 complete control), read-out: Foxtail, Giant plant response rating): 80%
- pest or weed control at 125 g/ha ([4]; 125 g ai/ha, Preemergence, visual injury rating after approximately 10 d, read-out: Pigweed plant response rating (0 to 100 scale, 0 is no effect, 100 is complete control)): 20%
- pest or weed control at 500 g/ha ([4]; 500 g ai/ha, preemergence, visual injury rating about 10 d after treatment, 0 to 100 scale (0 no effect, 100 complete control), read-out: Pigweed plant response rating): 50%
- pest or weed control at 125 g/ha ([5]; 125 g ai/ha, Preemergence, visual injury rating after approximately 10 d, read-out: Ragweed plant response rating (0 to 100 scale, 0 is no effect, 100 is complete control)): 0%
- pest or weed control at 500 g/ha ([5]; 500 g ai/ha, preemergence, visual injury rating about 10 d after treatment, 0 to 100 scale (0 no effect, 100 complete control), read-out: Ragweed plant response rating): 0%
- pest or weed control at 125 g/ha ([6]; 125 g ai/ha, Preemergence, visual injury rating after approximately 10 d, read-out: Ryegrass, Italian plant response rating (0 to 100 scale, 0 is no effect, 100 is complete control)): 0%
- pest or weed control at 500 g/ha ([6]; 500 g ai/ha, preemergence, visual injury rating about 10 d after treatment, 0 to 100 scale (0 no effect, 100 complete control), read-out: Ryegrass, Italian plant response rating): 0%
- pest or weed control at 125 g/ha [7, 19]: 0%
- pest or weed control at 500 g/ha [7, 20]: 0%
- pest or weed control at 125 g/ha (Kochia (Kochia scoparia) [8]; [19]): 0%
- pest or weed control at 500 g/ha (Kochia (Kochia scoparia) [8]; [20]): 40%
- pest or weed control at 125 g/ha [9, 19]: 50%
- pest or weed control at 500 g/ha [9, 20]: 90%
- pest or weed control at 125 g/ha [10, 19]: 0%
- pest or weed control at 500 g/ha [10, 20]: 0%
- Corn plant response rating (crop injury, 0 = no effect, 100 = complete kill) at 125 g/ha (corn (Zea mays); [19]): 0%
- Corn plant response rating (crop injury, 0 = no effect, 100 = complete kill) at 500 g/ha (corn (Zea mays); [20]): 0%
- pest or weed control at 125 g/ha [11, 19]: 0%
- pest or weed control at 500 g/ha [11, 20]: 50%
- pest or weed control at 125 g/ha [12, 19]: 0%
- pest or weed control at 500 g/ha [12, 20]: 0%
- pest or weed control at 125 g/ha [13, 19]: 0%
- pest or weed control at 500 g/ha [13, 20]: 0%
- pest or weed control at 125 g/ha [14, 19]: 0%
- pest or weed control at 500 g/ha [14, 20]: 0%
- plant injury at 125 g/ha [15, 19]: 0%
- plant injury at 500 g/ha [15, 20]: 0%
- pest or weed control at 250 g/ha [16]: 0%
- pest or weed control at 250 g/ha [17]: 60%
- pest or weed control at 250 g/ha (rice (Oryra sativa)): 0%
- pest or weed control at 250 g/ha [18]: 0%

— patent US12077503B2, “Substituted cyclic amides and their use as herbicides” (FMC CORPORATION, priority 2015, dated 2024)
